Test results: patent US20250368639A1, “SOLID FORMS OF A COMPOUND FOR TREATING OR PREVENTING HYPERURICEMIA OR GOUT” (ATOM THERAPEUTICS CO., LTD, priority 2022, published 2025)
Converted amounts (≈) assume the structure as drawn.

Key:
Type in all cases: physicochemical
[1] = Suspensions for animal formulation in 0.5% CMC-Na (XRPD); conditions: about 30 mg in 30 ml, sonication
Experimental: About 30 mg of Form 1, Form 2, and Form 5D were each added into a respective 40 ml glass bottle and mixed with 30 ml of 0.5% CMC-Na solution. The solids were dispersed uniformly in the solution with the aid of sonication. After that, the solids were isolated by centrifugation, dried at room temperature, and the dry solid analyzed with XRPD.

[2] = Dynamic vapor sorption/desorption (DVS)
Experimental: Moisture sorption/desorption data were collected on a SMS DVS intrinsic Vapor Sorption Analyzer under a nitrogen purge. The DVS experiment generally includes a moisture sorption step and a moisture desorption step. […] In other words, the sample is considered to have reached an equilibrium between moisture sorption and desorption under the relative humidity when dm/dt≤0.01%. The sample was maintained at the temperature of 25° C. with relative humidity varied from 0% to 95%, and back to 0% at an increment of 5% RH each step.

[3] = Long-term stability of Compound I Form 2 (XRPD)
Experimental: The stability of Compound I Form 2 was analyzed by the following two experiments.
Experiment A: The following is an X-ray Powder Diffraction Analytical method used to obtain the data shown in FIG. 43 and FIG. 44, and which complies with ChP<0451>/USP/NF<941>/EP10.6 2.9.33. Standard XRPD patterns were collected using a Bruker D8 Advance diffractometer or equivalent instrument.
Parameters for collecting the XRPD shown in FIG. 43 and FIG. 44 is as follows:
The XRPD patterns shown in FIG. 45 and FIG. 46 were collected using a Bruker D2 Phaser X-ray diffractometer. Detector: PSD LynxEye; Sample holder: Zero background sample holder or equivalent; Software: DIFFRAC. Measurement Center, Version V6.5.0 or equivalent; Diffractometer Settings: Diffractometer type: 02 phaser; Goniometer Type: Theta/Theta; Sample Stage: Standard rotating stage; Goniometer Diameter: 282.2 mm; Divergence slit: 1.0 mm; Primary seller slit: 2.5°; Secondary seller slit: 2.5°; Airscatter screen module: 1.0 mm; Tube Element: Cu; Tube parameters: voltage 30 kV; current 10 mA; Scan Parameters: SSD160: Locked coupled; SSD160-2: coupled Two Theta/Theta Scan Type: SSD160: Locked coupled; SSD160-2: coupled Two Theta/Theta; Continuous PSD fast Scan Mode: Continuous PSD fast scan; Rotation Speed: 20 rpm; Start: 3° ˜40° (2 0); Scan Step: 0.02° (2 0); Scan Speed: 0.2s/step; Detector opening: 4.5°; Sample Analysis; Test the sample with the Diffractometer Settings and Scan Parameters. The powder X-ray diffraction pattern of the sample was recorded and calculations were performed according to Bruker D2 Phaser X-ray Diffractometer User Manual V6-Identification of Crystal Form by X-Ray Powder Diffraction (XRPD)-Bruker D2 Phaser.

[4] = Solubility in water, buffers and bio-relevant media (37° C., 24 h shaking, HPLC); conditions: 37° C., 24 h
Experimental: The solubility of Form 1, Form 2, Form 5D, Form 6, Form 8, and Form 11 was analyzed in water, 0.1NaqueousHCl, pH4.5 acetate buffer solution, pH6.8 phosphate buffer solution, simulated gastric fluid (SGF), Fasted State Simulated Intestinal Fluid (FaSSIF), and Fed State Simulated Intestinal Fluid (FeSSIF).
About 5 mg or 10 mg of sample was weighed out into each vial and mixed with about 5 ml of medium to form a solution. The target concentration for the potassium salt in water was 2 mg/ml; and the target concentration for all other forms were 1 mg/mL. All samples were kept shaking at 200 rounds per minute (rpm) under 37° C. for 24 hours. The pH value of these samples were determined after shaking for 24 hours. Subsequently, they were centrifuged at the speed of 12000 rpm for 2 mins. The supernatant was diluted with methanol as necessary, and the concentrations were determined by HPLC. When the solubility of potassium salt was tested in water, the supernatant was diluted 100 times, while no other samples were diluted. The HPLC analysis utilizes Agilent Eclipse XDB-C8 4.6*150 mm, 5 μm column at 40° C., a mobile phase of 0.1% TFA: ACN=70:30, an injection volume of 10 μl, a flow rate of 1.0 ml/min, a diluent of methanol, and a detection wavelength of 234 nm.

[5] = Heating study of Form 1; conditions: 110° C. about 10 minutes / 100° C. 20 minutes
Experimental: About 150 mg of Form 1 was heated to 110° C. and maintained for about 10 minutes. The sample color changed from light yellow to dark yellow. The darker sample was evaluated with XRPD. The sample color changed back to light yellow at the conclusion of the XRPD evaluation, which was similar to the color before the heating treatment. […] Another sample of Form 1 was heated in an oven at 100° C. for 20 minutes and subsequently analyzed for the moisture content using KF method. The moisture content of heated Form 1 was 6.8%. […] The product is unstable and will rapidly absorb water.

[6] = Visual solubility of Form 1 in common solvents; conditions: thermodynamic from solid
Experimental: Solubility of Form 1 was tested visually. About 5 mg of Form I was accurately weighed into a glass vial of 5 ml. Small amounts of solvent was added gradually into the vial until the compound was dissolved or when the total amount added reached 5 ml. The cumulative volume of the solvent was recorded.

SMILES: CCc1nc2ccccn2c1C(=O)c1cc(Br)c(O)c(C#N)c1 [Form 2, 3-bromo-5-[(2-ethylimidazo[1,2-a]pyridin-3-yl)carbonyl]-2-hydroxybenzonitrile]
- Crystal form after dispersion in 0.5% CMC-Na solution (XRPD) [1]: transformed into Form 1
- DVS (80% RH) ([2]; 25° C.): 0.40%
- Water remaining within the sample (DVS desorption) ([2]; relative humidity decreased back to 0%): about 3.4%
- Hygroscopicity (DVS) ([2]; relative humidity less than 80%): low hygroscopicity
- Crystal form after DVS analysis (XRPD) ([2]; sample following DVS analysis): converted into Form 1
- Water absorbed (DVS) ([2]; when relative humidity reached 85% RH): about 3.8%
- Period over which the form remains stable (XRPD) ([3]; Experiment A, 25° C.±2° C./60% RH±5% RH): at least 12 months
- Period over which the form remains stable (XRPD) ([3]; Experiment A, 40° C.±2° C./75% RH±5% RH): at least 6 months
- Period over which the form remains stable (XRPD) ([3]; Experiment B, 25° C.±2° C./60% RH±5% RH): at least 48 months
- Period over which the form remains stable (XRPD) ([3]; Experiment B, 40° C.±2° C./75% RH±5% RH): at least 6 months
- Solubility ([4]; 0.1N HCl): 3.8 µg/mL (≈ 10.3 µM)
- Highest concentration among the media [4]: around 40 μg/ml
- Solubility in the buffer solution and bio-relevant medium [4]: low solubilities
- Solubility ([4]; FaSSIF): 41.8 µg/mL (≈ 113 µM)
- Solubility ([4]; FeSSIF): 2.8 µg/mL (≈ 7.56 µM)
- Solubility ([4]; SGF): 3.0 µg/mL (≈ 8.1 µM)
- Solubility ([4]; Water): 20.0 µg/mL (≈ 54 µM)
- Solubility ([4]; pH 4.5 acetate buffer): <1 µg/mL
- Solubility ([4]; pH 6.8 phosphate buffer): 24.1 µg/mL (≈ 65.1 µM)

SMILES: CCc1nc2ccccn2c1C(=O)c1cc(Br)c(O)c(C#N)c1 [Form 1, 3-bromo-5-[(2-ethylimidazo[1,2-a]pyridin-3-yl)carbonyl]-2-hydroxybenzonitrile]
- Behaviour upon heating [5]: may lose water upon heating
- Crystal form after dispersion in 0.5% CMC-Na solution (XRPD) [1]: did not change
- DVS (80% RH) ([2]; 25° C.): 5.32%
- DVS (85% RH) ([2]; 25° C., 85% RH): 5.68%
- Moisture absorbed (DVS) ([2]; relative humidity cycled from 0% RH to 5% RH): about 3.4 % by weight
- Solubility ([6]; acetone, organic solvent or mixture): < 1000 µg/mL
- Solubility ([6]; acetone:water 3:1, organic solvent or mixture, Acetone:water = 3:1): < 1000 µg/mL
- Solubility ([6]; acetonitrile (ACN), organic solvent or mixture): < 1000 µg/mL
- Solubility ([6]; dichloromethane (DCM), organic solvent or mixture): < 1000 µg/mL
- Solubility ([6]; dimethylformamide (DMF), organic solvent or mixture): > 25000 µg/mL
- Solubility ([6]; dimethylsulfoxide (DMSO), organic solvent or mixture): > 25000 µg/mL
- Solubility ([6]; ethanol, organic solvent or mixture, Ethanol (EtOH)): < 1000 µg/mL
- Solubility ([6]; ethyl acetate, organic solvent or mixture, Ethyl acetate (EtAc)): < 1000 µg/mL
- Solubility ([6]; heptane, organic solvent or mixture): < 1000 µg/mL
- Solubility ([6]; isopropyl alcohol, organic solvent or mixture): < 1000 µg/mL
- Solubility ([6]; methanol, organic solvent or mixture, Methanol (MeOH)): < 1000 µg/mL
- Solubility ([6]; methanol:water 3:1, organic solvent or mixture, Methanol:water = 3:1): < 1000 µg/mL
- Solubility ([6]; methyl ethyl ketone (MEK), organic solvent or mixture): < 1000 µg/mL
- Solubility ([6]; tetrahydrofuran (THF), organic solvent or mixture): ~3000 µg/mL (≈ 8100 µM)
- Solubility ([6]; toluene, organic solvent or mixture): < 1000 µg/mL
- Solubility ([6]; water, Water (H2O)): < 1000 µg/mL
- Solubility ([4]; 0.1N HCl): 5.0 µg/mL (≈ 13.5 µM)
- Solubility in the buffer solution and bio-relevant medium [4]: low solubilities
- Solubility ([4]; FaSSIF): 16.6 µg/mL (≈ 44.8 µM)
- Solubility ([4]; FeSSIF): 1.9 µg/mL (≈ 5.13 µM)
- Solubility ([4]; SGF): 2.9 µg/mL (≈ 7.83 µM)
- Solubility ([4]; Water): 9.4 µg/mL (≈ 25.4 µM)
- Solubility ([4]; pH 4.5 acetate buffer): 1.0 µg/mL (≈ 2.7 µM)
- Solubility ([4]; pH 6.8 phosphate buffer): 19.8 µg/mL (≈ 53.5 µM)
